From US20250214991A1 (Oncopia Therapeutics, Inc. d/b/a/ SK Life Science Labs, priority 2022, published 2025) come the findings set out here.

Structures can show the parent of a compound that is named as a salt.

Common to all, as to format: cell-based
The target in assay [1] is T1, IKZF2 (Homo sapiens (Human), UniProt Q96SW2+Q9UKS7). Put plainly: In vitro IKZF2 FACS Assay in Jurkat cells. Conditions: 24 hrs; for DC50: half maximal degradation concentration; for Dmax: maximal degradation percentage. How it is done: In vitro IKZF2 FACS Assay
DC50, A: <1 nM; B: 1-10 nM; C: 10-100 nM; D: 100-1000 nM; E: >1000 nM. Dmax, A: >80%; B: 60-80%; C: 40-60%; D: 20-40%; E: <20%.

Assay [2] concerns the target T1, IKZF2. Description: In vitro IKZF2 HiBit Assay (HEK293T Flp-in-HiBiT cells). To be noted: HEK293T Flp-in-HiBiT cells, 6 hrs incubation; for DC50: read-out: IKZF2 HiBit DC50; for Dmax: HEK-293T, read-out: IKZF2 HiBit Dmax (%). In outline:
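HEK293T Flp-in cells carrying an endogenous N-terminal HiBiT tag on IKZF2 were exposed to compound for 6 h at 0.1% DMSO. The dilution series was 11 doses at 3-fold, diluted from 1 mM. Nano-Glo HiBiT lytic luminescence, normalized to DMSO, gave DC50 for 50% degradation and Dmax across the concentration range, both reported in letter bins.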
(The HiBiT peptide binds its large partner to form an active luciferase.)

Assay [3] addresses IKZF1 (Homo sapiens (Human), UniProt Q13422+Q96SW2). Put plainly: In vitro IKZF1 HiBit Assay (HEK293T Flp-in-HiBiT-IKZF1 stable cell line). To be noted: HEK293T Flp-in-HiBiT-IKZF1 stable cell line, 6 hrs incubation; for DC50: read-out: IKZF1 HiBit DC50; for Dmax: HEK-293T, read-out: IKZF1 HiBit Dmax (%). In outline:
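HEK293T Flp-in cells carrying N-terminal HiBiT-tagged IKZF1 were exposed to compound (0.1% DMSO) for 6 h at 3000 cells/well. HiBiT luminescence was read after lytic LgBiT detection. DC50 and Dmax were taken from DMSO-normalized dose-response curves.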

IKZF1, sequence (Q13422 whole entry): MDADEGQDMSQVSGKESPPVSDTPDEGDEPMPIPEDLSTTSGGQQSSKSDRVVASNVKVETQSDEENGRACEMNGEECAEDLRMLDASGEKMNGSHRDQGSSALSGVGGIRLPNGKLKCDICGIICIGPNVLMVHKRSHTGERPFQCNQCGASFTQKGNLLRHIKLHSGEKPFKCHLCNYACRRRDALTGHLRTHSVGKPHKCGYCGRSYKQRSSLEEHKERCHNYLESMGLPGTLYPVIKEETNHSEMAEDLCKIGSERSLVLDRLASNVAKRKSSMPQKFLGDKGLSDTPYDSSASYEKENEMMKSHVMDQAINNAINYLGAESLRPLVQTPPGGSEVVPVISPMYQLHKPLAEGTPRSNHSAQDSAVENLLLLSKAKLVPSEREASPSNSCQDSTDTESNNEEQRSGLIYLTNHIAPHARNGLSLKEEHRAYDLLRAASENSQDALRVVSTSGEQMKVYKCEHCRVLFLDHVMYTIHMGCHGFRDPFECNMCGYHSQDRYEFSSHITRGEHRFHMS
IKZF1, sequence (Q96SW2 whole entry): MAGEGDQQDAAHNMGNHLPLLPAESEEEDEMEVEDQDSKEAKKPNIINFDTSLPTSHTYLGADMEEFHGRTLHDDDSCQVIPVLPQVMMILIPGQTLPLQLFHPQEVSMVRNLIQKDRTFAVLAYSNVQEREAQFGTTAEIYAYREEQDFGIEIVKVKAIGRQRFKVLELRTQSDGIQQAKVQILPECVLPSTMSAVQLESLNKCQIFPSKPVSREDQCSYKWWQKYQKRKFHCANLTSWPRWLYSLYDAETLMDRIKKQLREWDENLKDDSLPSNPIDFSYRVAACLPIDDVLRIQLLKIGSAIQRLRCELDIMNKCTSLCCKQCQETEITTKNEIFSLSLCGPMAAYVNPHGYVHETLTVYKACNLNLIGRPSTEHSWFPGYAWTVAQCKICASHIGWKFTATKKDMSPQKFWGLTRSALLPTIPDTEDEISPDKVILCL
IKZF1, sequence (Q16531 2-1140 partner): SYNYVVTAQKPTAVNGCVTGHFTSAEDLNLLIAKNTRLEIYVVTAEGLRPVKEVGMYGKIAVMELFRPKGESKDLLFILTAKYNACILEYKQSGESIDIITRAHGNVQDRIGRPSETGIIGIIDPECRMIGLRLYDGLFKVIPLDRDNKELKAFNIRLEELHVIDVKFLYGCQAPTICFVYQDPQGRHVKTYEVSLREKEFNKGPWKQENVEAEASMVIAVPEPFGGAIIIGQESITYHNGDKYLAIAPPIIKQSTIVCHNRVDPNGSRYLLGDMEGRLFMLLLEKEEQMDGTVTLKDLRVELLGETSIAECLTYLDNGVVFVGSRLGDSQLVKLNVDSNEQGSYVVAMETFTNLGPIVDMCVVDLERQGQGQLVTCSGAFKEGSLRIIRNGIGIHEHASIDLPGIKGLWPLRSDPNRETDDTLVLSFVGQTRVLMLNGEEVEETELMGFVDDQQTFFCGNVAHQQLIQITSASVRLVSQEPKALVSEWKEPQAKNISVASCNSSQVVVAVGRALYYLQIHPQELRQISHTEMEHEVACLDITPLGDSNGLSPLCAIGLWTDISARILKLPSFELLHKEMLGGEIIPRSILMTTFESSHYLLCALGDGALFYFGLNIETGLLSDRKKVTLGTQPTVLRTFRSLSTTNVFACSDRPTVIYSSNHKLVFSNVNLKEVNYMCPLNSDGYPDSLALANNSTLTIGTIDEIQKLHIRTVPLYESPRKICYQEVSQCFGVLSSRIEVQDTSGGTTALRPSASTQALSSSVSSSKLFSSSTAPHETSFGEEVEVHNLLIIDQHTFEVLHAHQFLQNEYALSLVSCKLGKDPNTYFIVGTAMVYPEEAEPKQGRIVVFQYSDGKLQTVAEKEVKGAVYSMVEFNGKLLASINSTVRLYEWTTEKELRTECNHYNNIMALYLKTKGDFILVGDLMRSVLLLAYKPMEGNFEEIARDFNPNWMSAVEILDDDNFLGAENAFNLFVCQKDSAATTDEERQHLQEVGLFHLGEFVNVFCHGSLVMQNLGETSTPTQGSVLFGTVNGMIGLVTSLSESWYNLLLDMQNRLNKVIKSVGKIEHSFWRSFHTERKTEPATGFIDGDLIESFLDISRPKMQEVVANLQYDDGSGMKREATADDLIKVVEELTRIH
T1 sequence (Q9UKS7 whole entry): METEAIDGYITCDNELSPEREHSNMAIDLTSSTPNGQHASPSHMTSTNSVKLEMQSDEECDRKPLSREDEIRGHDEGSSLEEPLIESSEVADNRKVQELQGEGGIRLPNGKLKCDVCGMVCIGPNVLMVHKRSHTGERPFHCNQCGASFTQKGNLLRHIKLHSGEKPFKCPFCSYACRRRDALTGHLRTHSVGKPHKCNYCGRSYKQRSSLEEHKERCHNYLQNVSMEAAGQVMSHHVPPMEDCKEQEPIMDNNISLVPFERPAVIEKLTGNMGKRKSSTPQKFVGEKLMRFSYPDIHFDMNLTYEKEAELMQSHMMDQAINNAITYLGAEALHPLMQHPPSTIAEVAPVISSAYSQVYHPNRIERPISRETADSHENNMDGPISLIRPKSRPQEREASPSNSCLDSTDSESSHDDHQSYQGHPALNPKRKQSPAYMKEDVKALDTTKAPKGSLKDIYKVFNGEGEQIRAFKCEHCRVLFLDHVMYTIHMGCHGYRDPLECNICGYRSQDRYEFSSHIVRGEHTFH
T1 sequence (Q96SW2 whole entry): as the sequence (Q96SW2 whole entry) above
T1 sequence (Q16531 2-1140 partner): as the sequence (Q16531 2-1140 partner) above

Turning to `O=C1CCC(N2Cc3c(ccc(-c4cc(CN5CCC(F)CC5)c5ccn(C6CS(=O)(=O)C6)c5n4)c3F)C2=O)C(=O)N1` (stereo not drawn) [Example 268, 3-(5-(1-(1,1-dioxidothietan-3-yl)-4-((4-fluoropiperidin-1-yl)methyl)-1H-pyrrolo[2,3-b]pyridin-6-yl)-4-fluoro-1-oxoisoindolin-2-yl) piperidine-2,6-dione], the DC50 is 1 to 10 nM in assay [1], less than 1 nM in assay [2] and 10 to 100 nM in assay [3]. Besides, the Dmax was more than 80% in assay [1], more than 80% in assay [2] and 40 to 60% in assay [3].

Take `CCNc1n[nH]c2c(CN3CCCC3)cc(-c3ccc4c(c3F)CN(C3CCC(=O)NC3=O)C4=O)nc12` (stereo not drawn) [Example 291, 3-(5-(3-(ethylamino)-7-(pyrrolidin-1-ylmethyl)-1H-pyrazolo[4,3-b]pyridin-5-yl)-4-fluoro-1-oxoisoindolin-2-yl) piperidine-2,6-dione]: the DC50 was less than 1 nM in assay [1], less than 1 nM in assay [2] and 10 to 100 nM in assay [3]. In addition, the Dmax was more than 80% in assay [1], more than 80% in assay [2] and 40 to 60% in assay [3].

Take `CC(C)Nc1n[nH]c2c(CN3CCC4(CC3)COC4)cc(-c3ccc4c(c3F)CN(C3CCC(=O)NC3=O)C4=O)nc12` (stereo not drawn) [Example 284, 3-(5-(7-((2-oxa-7-azaspiro[3.5]nonan-7-yl)methyl)-3-(isopropylamino)-1H-pyrazolo[4,3-b]pyridin-5-yl)-4-fluoro-1-oxoisoindolin-2-yl) piperidine-2,6-dione]: the figures for the DC50 in assay [1], in assay [2] and in assay [3] were 10 to 100 nM, 1 to 10 nM and 10 to 100 nM, respectively. Moreover, the values for the Dmax in assay [1], in assay [2] and in assay [3] were 60 to 80%, more than 80% and 20 to 40%, respectively.

On to `COC1CC(n2ccc3c(CN4CCCC4)cc(-c4ccc5c(c4)CN(C4CCC(=O)NC4=O)C5=O)nc32)C1` (stereo not drawn) [Example 255, 3-(5-(1-(3-methoxycyclobutyl)-4-(pyrrolidin-1-ylmethyl)-1H-pyrrolo[2,3-b]pyridin-6-yl)-1-oxoisoindolin-2-yl) piperidine-2,6-dione], for which the figures for the DC50 in assay [1], in assay [2] and in assay [3] were 1 to 10 nM, 1 to 10 nM and 10 to 100 nM, respectively. The figures for the Dmax in assay [1], in assay [2] and in assay [3] were more than 80%, more than 80% and 20 to 40%, respectively.

Turning to `Cn1ccc(-n2ccc3c(CN4CCCC4)cc(-c4ccc5c(c4)CN([C@H]4CCC(=O)NC4=O)C5=O)nc32)n1` [Example 265, (S)-3-(5-(1-(1-methyl-1H-pyrazol-3-yl)-4-(pyrrolidin-1-ylmethyl)-1H-pyrrolo[2,3-b]pyridin-6-yl)-1-oxoisoindolin-2-yl) piperidine-2,6-dione], the values for the DC50 in assay [1], in assay [2] and in assay [3] were 1 to 10 nM, 1 to 10 nM and more than 10000 nM, respectively. Besides, the Dmax in assay [1] was 60 to 80%; in assay [2], more than 80%; in assay [3] it was less than 20%.

For the compound `O=C1CCC(N2Cc3c(ccc(-c4cc(CN5CC6COCC6C5)c5ccn(C6CS(=O)(=O)C6)c5n4)c3F)C2=O)C(=O)N1` (stereo not drawn) [Example 269, 3-(5-(1-(1,1-dioxidothietan-3-yl)-4-((tetrahydro-1H-furo[3,4-c]pyrrol-5 (3H)-yl)methyl)-1H-pyrrolo[2,3-b]pyridin-6-yl)-4-fluoro-1-oxoisoindolin-2-yl) piperidine-2,6-dione], the figures for the DC50 in assay [1], in assay [2] and in assay [3] were 1 to 10 nM, 1 to 10 nM and 10 to 100 nM, respectively. Moreover, the Dmax in assay [1] was more than 80%; in assay [2] it was more than 80%; in assay [3] it was 20 to 40%.

Take `COC1CCN(Cc2cc(-c3ccc4c(c3F)CN(C3CCC(=O)NC3=O)C4=O)nc3c2ccn3C2CS(=O)(=O)C2)CC1` (stereo not drawn) [Example 266, 3-(5-(1-(1,1-dioxidothietan-3-yl)-4-((4-methoxypiperidin-1-yl)methyl)-1H-pyrrolo[2,3-b]pyridin-6-yl)-4-fluoro-1-oxoisoindolin-2-yl) piperidine-2,6-dione formate]: the DC50 lay within 1 to 10 nM in assay [1], 1 to 10 nM in assay [2] and 10 to 100 nM in assay [3]. Besides, the Dmax in assay [1] was more than 80%; in assay [2], more than 80%; in assay [3], 40 to 60%.

Consider `COC[C@@H]1CCCN1Cc1cc(-c2ccc3c(c2)CN(C2CCC(=O)NC2=O)C3=O)nc2c1ccn2C1COC1` (stereo partly drawn) [Example 250, 3-(5-(4-(((S)-2-(methoxymethyl)pyrrolidin-1-yl)methyl)-1-(oxetan-3-yl)-1H-pyrrolo[2,3-b]pyridin-6-yl)-1-oxoisoindolin-2-yl) piperidine-2,6-dione], for which the DC50 in assay [1] was 1 to 10 nM; in assay [2], 1 to 10 nM; in assay [3], more than 10000 nM. For the same compound, the Dmax in assay [1] was 60 to 80%; in assay [2] it was 60 to 80%; in assay [3], less than 20%.

Turning to `CN1CC(n2ccc3c(CN4CCCC4)cc(-c4ccc5c(c4F)CN(C4CCC(=O)NC4=O)C5=O)nc32)C1` (stereo not drawn) [Example 260, 3-(4-fluoro-5-(1-(1-methylazetidin-3-yl)-4-(pyrrolidin-1-ylmethyl)-1H-pyrrolo[2,3-b]pyridin-6-yl)-1-oxoisoindolin-2-yl) piperidine-2,6-dione], the figures for the DC50 in assay [1], in assay [2] and in assay [3] were 1 to 10 nM, 1 to 10 nM and 10 to 100 nM, respectively. The Dmax in assay [1] is more than 80%; in assay [2], more than 80%; in assay [3], 60 to 80%.

As to `CN1CC(n2ncc3c(CN4CCCC4)cc(-c4ccc5c(c4)CN(C4CCC(=O)NC4=O)C5=O)nc32)C1` (stereo not drawn) [Example 261, 3-(5-(1-(1-methylazetidin-3-yl)-4-(pyrrolidin-1-ylmethyl)-1H-pyrazolo[3,4-b]pyridin-6-yl)-1-oxoisoindolin-2-yl) piperidine-2,6-dione], the DC50 is 1 to 10 nM in assay [1], 1 to 10 nM in assay [2] and 10 to 100 nM in assay [3]. Further, the Dmax is more than 80% in assay [1], more than 80% in assay [2] and 60 to 80% in assay [3].

For `CC1c2cc(-c3cc(CN4CCCC4)c4ccn(C5COC5)c4n3)ccc2C(=O)N1C1CCC(=O)NC1=O` (stereo not drawn) [Example 276, 3-(3-methyl-5-(1-(oxetan-3-yl)-4-(pyrrolidin-1-ylmethyl)-1H-pyrrolo[2,3-b]pyridin-6-yl)-1-oxoisoindolin-2-yl) piperidine-2,6-dione], the DC50 is 1 to 10 nM in assay [1], 1 to 10 nM in assay [2] and more than 10000 nM in assay [3]. The Dmax is more than 80% in assay [1], more than 80% in assay [2] and less than 20% in assay [3].

For the compound `COC1CCN(Cc2cc(-c3ccc4c(c3F)CN(C3CCC(=O)NC3=O)C4=O)nc3c(NC(C)C)n[nH]c23)CC1` (stereo not drawn) [Example 283, 3-(4-fluoro-5-(3-(isopropylamino)-7-((4-methoxypiperidin-1-yl)methyl)-1H-pyrazolo[4,3-b]pyridin-5-yl)-1-oxoisoindolin-2-yl) piperidine-2,6-dione], the figures for the DC50 in assay [1], in assay [2] and in assay [3] were 1 to 10 nM, 1 to 10 nM and more than 10000 nM, respectively. For the same compound, the Dmax was more than 80% in assay [1], more than 80% in assay [2] and less than 20% in assay [3].

Regarding `O=C1CCC(N2Cc3cc(-c4cc(CN5CCCC5)c5c(C(F)(F)F)nn(C6COC6)c5n4)ccc3C2=O)C(=O)N1` (stereo not drawn) [Example 245, 3-(5-(1-(oxetan-3-yl)-4-(pyrrolidin-1-ylmethyl)-3-(trifluoromethyl)-1H-pyrazolo[3,4-b]pyridin-6-yl)-1-oxoisoindolin-2-yl) piperidine-2,6-dione], the DC50 in assay [1] was 1 to 10 nM; in assay [2] it was 1 to 10 nM; in assay [3], more than 10000 nM. The Dmax in assay [1] was 40 to 60%; in assay [2] it was 40 to 60%; in assay [3] it was less than 20%.

In the case of `O=C1CCC(N2Cc3cc(-c4nc(CN5CCCC5)c5ccn(C6CS(=O)(=O)C6)c5n4)ccc3C2=O)C(=O)N1` (stereo not drawn) [Example 220, 3-(5-(7-(1,1-dioxidothietan-3-yl)-4-(pyrrolidin-1-ylmethyl)-7H-pyrrolo[2,3-d]pyrimidin-2-yl)-1-oxoisoindolin-2-yl) piperidine-2,6-dione], the DC50 is 10 to 100 nM in assay [1], 10 to 100 nM in assay [2] and more than 10000 nM in assay [3]. In addition, the Dmax was 40 to 60% in assay [1], 60 to 80% in assay [2] and less than 20% in assay [3].

`Cc1cc2c(CN3CCCC3)cc(-c3ccc4c(c3)CN(C3CCC(=O)NC3=O)C4=O)nc2n1C1COC1` (stereo not drawn) [Example 275, 3-(5-(2-methyl-1-(oxetan-3-yl)-4-(pyrrolidin-1-ylmethyl)-1H-pyrrolo[2,3-b]pyridin-6-yl)-1-oxoisoindolin-2-yl) piperidine-2,6-dione]: the DC50 in assay [1] was 10 to 100 nM; in assay [2] it was 1 to 10 nM; in assay [3] it was more than 10000 nM. Further, the Dmax in assay [1] was 60 to 80%; in assay [2] it was 60 to 80%; in assay [3], less than 20%.
